Experimental data taken from PubChem BioAssay (NCI).
Where “and” joins values, the source holds several entries; their conditions need not be identical. Equal values may be shown once.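 Method: 48-hour compound exposure of cells in 96-well plates, five concentrations, linear interpolation of endpoints. The concentration for 50% growth inhibition is given as GI50. TGI is the concentration that stops growth completely.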

Experiments:
Test in all cases: NCI tumour cell line growth inhibition, 48 h
[1] = system: HT29 colon
[2] = system: RXF 393 renal
[3] = system: SF-268 CNS
[4] = system: ACHN renal
[5] = system: NCI-H23 lung
[6] = system: U251 CNS
[7] = system: LOX IMVI melanoma
[8] = system: 786-0 renal
[9] = system: OVCAR-8 ovarian

SMILES	GI50 [1]	TGI [1]	GI50 [2]	TGI [2]	GI50 [3]	TGI [3]	GI50 [4]	TGI [4]	GI50 [5]	TGI [5]	GI50 [6]	TGI [6]	GI50 [7]	TGI [7] [µM]	GI50 [8]	TGI [8]	GI50 [9]	TGI [9]
COc1ccc(Nc2nccc(N3CCN(c4c5ccc(Cl)cc5nc5ccc(OC)cc45)CC3)n2)cc1	6.61 µM	> 100 µM	1.78 µM	6.8 µM	11.8 µM	> 100 µM	6.86 µM	> 100 µM	22.7 µM	> 100 µM	4.36 µM	> 100 µM	6.11 µM	> 100	5.4 µM	47.2 µM	6.53 µM	> 100 µM
COc1ccccc1NC(=O)/C(=C/c1ccccc1)C(C)=O	–	> 100 µM	–	53.8 µM	–	> 100 µM	–	> 100 µM	–	65.7 µM	–	15 µM	–	> 100	–	> 100 µM	–	> 100 µM
COc1cc2nc(-c3ccc(C(F)(F)F)cc3)cc(OCCCN3CCCC3)c2cc1OC	0.429 µM	5.85 µM	0.448 µM	3.85 µM	3.5 µM	> 48.1 µM	0.754 µM	> 34.1 µM	2.9 µM	17.6 µM	1.31 µM	18.8 µM	0.116 µM	0.322	1.88 µM	6.03 µM	0.826 µM	> 49.7 µM
CC1OC(c2ccc3c(c2O)C(=O)C2=C(C3=O)C3(O)C(=O)CC(C)(O)CC3(O)C=C2)CC(O)C1O (stereo not given)	–	19.6 µM	–	26.8 µM	–	> 60 µM	–	26.5 µM	–	45.6 µM	–	31.4 µM	–	30.9	–	33.6 µM	–	51.5 µM
Cc1ccc(NC(=O)/C(Cc2cc(=O)oc3cc(O)ccc23)=N\NC(=O)C[N+](C)(C)C)cc1C	–	> 100 µM	–	> 100 µM	–	> 100 µM	–	> 100 µM	–	> 100 µM	–	> 100 µM	–	> 100	–	> 100 µM	–	> 100 µM
CCN(CC)c1ccc(/C=C/C2=[N+](C)c3ccccc3C2(C)C)c(C)c1	0.0463 µM	1.32 µM	0.0837 µM	2.85 µM	0.1 µM	2.11 µM	0.0773 µM	3.97 µM	< 0.0244 µM	10.5 µM	0.0364 µM	2.54 µM	0.0535 µM	1.28	0.0941 µM	1.88 µM	0.0629 µM	3.12 µM
O=C(c1cccs1)C1NO[N+]([O-])=C1c1cccs1 (stereo not given)	1.94 µM	3.65 µM	1.68 µM	3.42 µM	2.35 µM	5.98 µM	1.85 µM	3.56 µM	2.94 µM	9.42 µM	5.6 µM	12 µM	2.4 µM	6.5	2.01 µM	3.88 µM	2.9 µM	> 21.9 µM
O=C(NCCN1CCNCC1)c1ccc(Nc2nc3ccccc3c3occc23)cc1	4.5 µM	> 100 µM	6.92 µM	26.4 µM	21.3 µM	> 100 µM	20.1 µM	36 µM	12.6 µM	27.6 µM	17.9 µM	33.1 µM	15.2 µM	33.1	8.06 µM	21.6 µM	23.2 µM	75.7 µM
CCOc1ccc(Nc2c3ccccc3nc3ccccc23)cc1	0.307 µM and 0.264 µM	1.26 µM and 1.08 µM	0.397 µM and 0.402 µM	2.25 µM and 2.71 µM	0.709 µM and 0.526 µM	19.1 µM and 13.9 µM	0.953 µM and 0.636 µM	3.83 µM and 2.15 µM	0.495 µM and 0.422 µM	4.51 µM and 3.3 µM	0.464 µM and 0.381 µM	2.25 µM and 1.9 µM	0.515 µM and 0.529 µM	2.98	0.666 µM and 0.34 µM	6.67 µM and 2.61 µM	0.54 µM and 0.592 µM	2.45 µM and 15 µM
O=C(/C=C/c1cccc(O)c1)c1cccc(-n2cc(-c3ccc4ccccc4c3)[nH]c2=O)c1	1.53 µM	2.87 µM	1.41 µM	3.07 µM	1.73 µM	3.55 µM	1.57 µM	3.08 µM	1.52 µM	3.58 µM	1.09 µM	2.28 µM	0.858 µM	2.08	1.74 µM	3.13 µM	2.33 µM	> 100 µM
[2H]c1nc(=Nc2cc(NC(=O)C=C)c(N(C)CCN(C)C)cc2OC)[nH]c(-c2cn(C([2H])([2H])[2H])c3ccccc23)c1[2H]	1.69 µM	3.26 µM	1.4 µM	3.2 µM	1.98 µM	13 µM	0.0836 µM	1.65 µM	3.14 µM	15.5 µM	1.76 µM	3.6 µM	1.65 µM	3.17	1.34 µM	2.68 µM	4 µM	24.5 µM
O=C(Cl)C1=C(c2ccccc2)C1c1ccccc1 (stereo not given)	–	> 100 µM	–	> 100 µM	–	> 100 µM	–	> 100 µM	–	> 100 µM	–	> 100 µM	–	> 100	–	> 100 µM	–	> 100 µM
Fc1ccc2nc(-c3cc(-c4ccc5c(c4)OCO5)n[nH]3)[nH]c2c1	5.06 µM	> 37.8 µM	2.81 µM	32.1 µM	5.22 µM	> 54.9 µM	2.74 µM	> 25.4 µM	6.58 µM	> 93.8 µM	2.49 µM	> 35.8 µM	2.18 µM	10.4	5.89 µM	> 80 µM	2.99 µM	16 µM
COc1cccc(COc2cc(-n3cnc4ccccc43)sc2C(N)=O)c1	2.03 µM	> 25 µM	5.69 µM	> 25 µM	5.88 µM	> 25 µM	> 25 µM	> 25 µM	> 16.6 µM	> 25 µM	> 13.6 µM	> 25 µM	> 25 µM	> 25	> 25 µM	> 25 µM	11.9 µM	> 25 µM
CCOC(=O)c1c(SCCN2CCOCC2)n(-c2ccccc2)c(=S)n(-c2ccccc2)c1=O	–	34.9 µM	–	33.9 µM	–	> 100 µM	–	> 100 µM	–	92.3 µM	–	> 100 µM	–	33.3	–	46 µM	–	> 100 µM
